Assay results reported in publication PMC7112612 (The Journal of Infection, 2013).
Converted amounts (≈) assume the structure as drawn. “And” between values parts separate entries of the source, which are not always exact repeats. Identical values can stand only once. “Also recorded” adds a separate entry of the source. Counter-ions that a name gives are not always drawn. Like-named read-outs stand apart in the source and are kept apart here.

B1: Betaferon (protein, UniProt P01574 22-187, looked up, variant C17S)
Interferon beta: MSYNLLGFLQRSSNFQSQKLLWQLNGRLEYCLKDRMNFDIPEEIKQLQQFQKEDAALTIYEMLQNIFAIFRQDSSSTGWNETIVENLLANVYHQINHLKTVLEEKLEKEDFTRGKLMSSLHLKRYYGRILHYLKAKEYSHCAWTIVRVEILRNFYFINRLTGYLRN
modifications: lacks N-terminal Met1
B2: Imukin (protein, UniProt P01579 24-161, looked up)
Interferon gamma: QDPYVKEAENLKKYFNAGHSDVADNGTLFLGILKNWKEESDRKIMQSQIVSFYFKLFKNFKDDQSIQKSVETIKEDMNVKFFNSNKKKRDDFEKLTNYSVTDLNVQRKAIHELIQVMAELSPAAKTGKRKRSQMLFRG

Assays:
[1] = tested on: influenza A/WSN/1933 (H1N1) virus; assay: microbe, parasite or virus in culture; assay type: cell-based; details: for EC50: Influenza A virus, H1N1|WSN, MDCK
MDCK cells = details: dog
[2] = in vivo, cited from earlier work
MERS-CoV [3] = assay type: cell-based
MERS-CoV [4] = assay type: cell-based; remark: listed apart in the source
MERS-CoV [5] = assay: microbe, parasite or virus in culture; assay type: cell-based
in vitro = details: African green monkey
SARS-CoV = details: mouse, in vivo; cited from earlier work
uninfected MDCK cells = details: cited from earlier work
[6] = Middle East respiratory syndrome-related coronavirus, Vero

Molecule | Result of chemical library screening [1] | TC50 (MDCK cells) | EC50 [1] | Selectivity index [1] | Serum concentration ([2]; po) | anti-MERS-CoV activity at the tested concentrations (in words) (MERS-CoV [4]) | also measured
NC12CC3CC(CC(C3)C1)C2 [Amantadine] | not identified | – | – | – | – | – | –
CC[C@H]1CN2CCc3cc(OC)c(OC)cc3[C@@H]2C[C@@H]1C[C@H]1NCCc2cc(OC)c(OC)cc21 [Emetine] | primary hits with protective results | 17.00 µM | 14.7 µM | – | – | – | –
C[C@]12CC[C@@H]3c4ccc(O)cc4CC[C@H]3[C@@H]1CC[C@@H]2O [Estradiol] | primary hits with protective results | 75.00 µM | 20 µM | 3.00 | – | – | –
O=C(O)c1ccccc1Nc1cccc(C(F)(F)F)c1 [Flufenamic acid] | primary hits with protective results | 79.16 µM | 6.3 µM | 12.60 | 6–20 [200 mg] μg/ml | – | –
Cc1ccc(Cl)c(Nc2ccccc2C(=O)O)c1Cl [Meclofenamate sodium] | primary hits with protective results | 100.00 µM | 45 µM | 2.00 | 4.8 [100 mg tds] μg/ml | – | –
Cc1cccc(Nc2ccccc2C(=O)O)c1C [Mefenamic acid] | primary hits with protective results | 200.00 µM | 50 µM | 4.00 | 10 [1 g] μg/ml | – | –
Sc1ncnc2nc[nH]c12 [Mercaptopurine] | primary hits with protective results | 100.00 µM | 26.5 µM | 4.00 | 0.09 [50 mg/m^2] μg/ml | – | –
COc1c(C)c2c(c(O)c1C/C=C(\C)CCC(=O)OCCN1CCOCC1)C(=O)OC2 [Mycophenolate mofetil] | – | – | – | – | – | – | average plasma elimination half-life ([2]; iv, 1500 mg): 16.6 h; average plasma elimination half-life ([2]; po, 1000 mg): 17.9 h
COc1c(C)c2c(c(O)c1C/C=C(\C)CCC(=O)O)C(=O)OC2 [Mycophenolic acid] | primary hits with protective results | 170.00 µM | – | – | – | showed anti-MERS-CoV activity | concentration achieving 100% plaque reduction (MERS-CoV [3]): 6.4 µg/mL; concentration at which CPE was completely absent (MERS-CoV [4]): ≥ 0.063 µg/mL; EC99 (MERS-CoV [5]): 4.86 ± 0.57 µg/mL; Selectivity index (MERS-CoV [5]): >195.12; reduction in viral load (MERS-CoV [5]): > 2 log; EC50 (MERS-CoV [5]; [6]): 0.17 ± 0.03 µg/mL (≈ 0.531 µM); EC90 (MERS-CoV [5]; [6]): 2.61 ± 0.34 µg/mL (≈ 8.15 µM); reduction in viral load (MERS-CoV [5]; at 16 μg/ml): ~4 log; CC50 (in vitro): > 32 µg/mL; efficacy against SARS-CoV in an animal model (in words) (SARS-CoV): ineffective
CCc1nc(N)nc(N)c1-c1ccc(Cl)cc1 [Pyrimethamine] | primary hits with protective results | 5.40 µM | 3.1 µM | 1.80 | 0.55 [1500/75 mg of sulfadoxine/pyrimethamine] μg/ml | – | –
NC(=O)c1ncn([C@@H]2O[C@H](CO)[C@@H](O)[C@H]2O)n1 [Ribavirin] | primary hits with protective results | 168.00 µM | 20 µM | 8.00 | 2.2 [4 weeks of 600 mg bd] μg/ml | showed anti-MERS-CoV activity | concentration achieving 100% plaque reduction (MERS-CoV [3]): 400 µg/mL; peak concentration ([2]; iv): approximately 24 μg/ml; concentration inhibiting replication of uninfected MDCK cells (uninfected MDCK cells): ≥ 10000 ng/mL; EC99 (MERS-CoV [5]): 183.17 ± 11.97 µg/mL; Selectivity index (MERS-CoV [5]): >152.98; reduction in viral load (MERS-CoV [5]): > 2 log; EC50 (MERS-CoV [5]; [6]): 9.99 ± 2.97 µg/mL (≈ 40.9 µM); EC90 (MERS-CoV [5]; [6]): 107 ± 11.2 µg/mL (≈ 438 µM); CC50 (in vitro): > 1600 µg/mL
Cc1c(Cl)cccc1Nc1ccccc1C(=O)O [Tolfenamic acid] | primary hits with protective results | 64.00 µM | 7.94 µM | 8.00 | 4.1 [300 mg] μg/ml | – | –
Cc1cccc(C)c1OCC(=O)N[C@@H](Cc1ccccc1)[C@@H](O)C[C@H](Cc1ccccc1)NC(=O)[C@H](C(C)C)N1CCCNC1=O [lopinavir] | – | – | – | – | – | suboptimal EC50; also recorded: not found to be active | –
Cc1c(O)cccc1C(=O)N[C@@H](CSc1ccccc1)[C@H](O)CN1C[C@H]2CCCC[C@H]2C[C@H]1C(=O)NC(C)(C)C [nelfinavir mesylate hydrate] | – | – | – | – | – | suboptimal EC50 | –
B1 | – | – | – | – | – | showed anti-MERS-CoV activity | maximum percentage of plaque reduction (MERS-CoV [3]): 66.6%; plaque reduction (MERS-CoV [3]): 40–50%; mean peak serum concentration [2]: 40 IU/ml; CC50 (Vero cells): 3125 IU/ml; EC50 (MERS-CoV [5]): 17.64 IU/ml and 17.64 ± 1.09 IU/ml; EC90 (MERS-CoV [5]): 93.31 ± 10.07 IU/ml; EC99 (MERS-CoV [5]): 135.70 ± 15.96 IU/ml
B2 | – | – | – | – | – | suboptimal EC50 | –
